Assay results taken from patent publication US10010077B2, “Ginkgo derived compositions and their use to prevent fruit infestation by codling moth” (Missouri State University, priority 2012, dated 2018).
Marks after values point to notes of the source that are not given here.

What was measured:
[1] = concentration of 0.2%; cited from earlier work
codling moth neonates = experiment: apple plug choice feeding bioassay with codling moth neonates; assay type: in vivo, Cydia pomonella
Protocol: Codling moth pupae were obtained from USDA-ARS Yakima Agricultural Research Laboratory in Wapato, Wash., USA. These pupae were stored at 25° C., 70-80% relative humidity and 16:8 (L:D). Moths were allowed to oviposit on polypropylene Ziploc bags (S. C. Johnson, Racine, Wis., USA). Neonates were collected 0.5-1.0 h post-hatch and subjected to bioassays immediately.
Bioassays were performed as described in details by Durden et al. (2008). Briefly, apple plugs were formed by forcing a plastic soda straw through a 20 mm thick section of apple containing both epidermis and flesh of the apple. The straw with a plug in it was cut to a length of approximately 15 mm, the plug positioned with the epidermis of the apple protruding 2 mm from the straw and entire assembly was dipped in liquid paraffin wax. Excess wax was removed from the epidermis of the plug using a warm spatula.
Five microliters of either control (dehydration alcohol only) or experimental solution was applied to the epidermis of each apple plug and allowed to dry. Using a small amount of modeling clay, four plugs (two controls, two experimental) were arranged with one control and one experimental plug facing each other at either side of a 60×15 mm polyurethane petri dish. A short piece of glass rod (1.3 mm diameter) was placed between the two pairs of plugs to form a bridge allowing tested codling moth neonate to choose between either control or experimental plug regardless of which direction the larva traveled along the glass rod.
Assays were evaluated after 20 hours to determine which plug was fed upon. Feeding deterrence index was calculated according to Jones (1952) by dividing the number of the neonates feeding on apple plugs treated with […] by the number of the neonates feeding on the plugs treated with dehydration alcohol only, subtracting this figure from 1, and multiplying the result by 100. Further details about this method may be found in Durden et al. (2008) and Durden et al., (2011).
[…] The number of tests per concentration (each test performed with a different neonate) varied between 13 and 93. The null hypothesis that 50% of neonates would choose control plugs and 50% would choose experimental plugs was tested using Fisher's Exact Test (α=0.05).

mammals = settings: cited from earlier work
[2] = choice test versus fruit treated at 0.1 mg/ml
[3] = choice test versus fruit treated at 1 mg/ml
[4] = choice test versus fruit treated at 10 mg/ml

Row | Molecule | phytotoxicity [1] | Deterrence index (codling moth neonates; 0.001 mg/ml) | Number of neonates feeding Treated fruit (codling moth neonates; 0.001 mg/ml) | Deterrence index (codling moth neonates; 0.01 mg/ml) | Number of neonates feeding Treated fruit (codling moth neonates; 0.01 mg/ml) | Deterrence index (codling moth neonates; 0.1 mg/ml) | Number of neonates feeding Treated fruit (codling moth neonates; 0.1 mg/ml) | Deterrence index (codling moth neonates; 1 mg/ml) | Number of neonates feeding Treated fruit (codling moth neonates; 1 mg/ml) | Deterrence index (codling moth neonates; 10 mg/ml) | Number of neonates feeding Treated fruit (codling moth neonates; 10 mg/ml) | concentration at which feeding deterrent effects were found (codling moth neonates; Fisher exact test) | Number of neonates feeding Control fruit (codling moth neonates; choice test versus fruit treated at 0.001 mg/ml) | Number of neonates feeding Control fruit (codling moth neonates; choice test versus fruit treated at 0.01 mg/ml) | Number of neonates feeding Control fruit (codling moth neonates; [2]) | Number of neonates feeding Control fruit (codling moth neonates; [3]) | Number of neonates feeding Control fruit (codling moth neonates; [4]) | LD50 (mammals) | feeding deterrent properties against codling moth neonates (codling moth neonates; all concentrations tested, Fisher exact test)
1 | CC(C)(C)[C@]1(O)CC2OC(=O)CC23C(=O)OC2OC(=O)[C@H](O)C231 (stereo partly shown) [Bilobalide] | not phytotoxic | 0 | 15 | 23.5 | 13 | 56.5 | 20* | 50 | 31* | 75 | 8** | ≥ 0.1 mg/mL | 15 | 17 | 46 | 62 | 32 | > 1,000 mg/kg | 
2 | Ginkgolide C |  |  |  |  |  | 11.8 | 15 | 20 | 24 | 10 | 18 |  |  |  | 17 | 30 | 20 |  | did not exhibit significant feeding deterrent properties
